Measured values taken from PubChem BioAssay (NCI).
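Here, GI50 denotes the concentration required for 50% inhibition of growth. The concentration for full growth arrest is given as TGI.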

Columns and labels:
Test in all cases: NCI tumour cell line growth inhibition, 384-well format
SF-539 CNS = tested on: SF-539 CNS
UACC-62 melanoma = tested on: UACC-62 melanoma
BT-549 breast = tested on: BT-549 breast
KM12 colon = tested on: KM12 colon
PC-3 prostate = tested on: PC-3 prostate
MALME-3M melanoma = tested on: MALME-3M melanoma
SNB-75 CNS = tested on: SNB-75 CNS
CAKI-1 renal = tested on: CAKI-1 renal
SW-620 colon = tested on: SW-620 colon
DU-145 prostate = tested on: DU-145 prostate
SF-268 CNS = tested on: SF-268 CNS
OVCAR-8 ovarian = tested on: OVCAR-8 ovarian
M14 melanoma = tested on: M14 melanoma
NCI-H226 lung = tested on: NCI-H226 lung
LOX IMVI melanoma = tested on: LOX IMVI melanoma
MDA-MB-468 breast = tested on: MDA-MB-468 breast
HL-60(TB) leukemia = tested on: HL-60(TB) leukemia
IGROV1 ovarian = tested on: IGROV1 ovarian
SNB-19 CNS = tested on: SNB-19 CNS
HS 578T breast = tested on: HS 578T breast
COLO 205 colon = tested on: COLO 205 colon
MDA-MB-435 melanoma = tested on: MDA-MB-435 melanoma
SK-MEL-28 melanoma = tested on: SK-MEL-28 melanoma
SR leukemia = tested on: SR leukemia
UO-31 renal = tested on: UO-31 renal
NCI-H522 lung = tested on: NCI-H522 lung
HCT-15 colon = tested on: HCT-15 colon
TK-10 renal = tested on: TK-10 renal
OVCAR-3 ovarian = tested on: OVCAR-3 ovarian
A549 NSCLC = tested on: A549 NSCLC
T-47D breast = tested on: T-47D breast
RXF 393 renal = tested on: RXF 393 renal
NCI-H322M lung = tested on: NCI-H322M lung
OVCAR-4 ovarian = tested on: OVCAR-4 ovarian
HOP-62 NSCLC = tested on: HOP-62 NSCLC
NCI-H23 lung = tested on: NCI-H23 lung
MOLT-4 leukemia = tested on: MOLT-4 leukemia
786-0 renal = tested on: 786-0 renal
UACC-257 melanoma = tested on: UACC-257 melanoma
SK-MEL-5 melanoma = tested on: SK-MEL-5 melanoma
HT29 colon = tested on: HT29 colon
A498 renal = tested on: A498 renal
SN12C renal = tested on: SN12C renal
OVCAR-5 ovarian = tested on: OVCAR-5 ovarian
NCI/ADR-RES ovarian = tested on: NCI/ADR-RES ovarian
MCF7 breast = tested on: MCF7 breast
MDA-MB-231 breast = tested on: MDA-MB-231 breast
CCRF-CEM leukemia = tested on: CCRF-CEM leukemia
SF-295 CNS = tested on: SF-295 CNS
HOP-92 NSCLC = tested on: HOP-92 NSCLC
EKVX NSCLC = tested on: EKVX NSCLC
HCC-2998 colon = tested on: HCC-2998 colon
ACHN renal = tested on: ACHN renal
RPMI-8226 leukemia = tested on: RPMI-8226 leukemia
SK-OV-3 ovarian = tested on: SK-OV-3 ovarian
NCI-H460 NSCLC = tested on: NCI-H460 NSCLC
K-562 leukemia = tested on: K-562 leukemia

N#Cc1cc(F)cc(Oc2ccc(S(=O)(=O)C(F)F)c3c2CC(F)(F)[C@H]3O)c1
GI50 (SF-539 CNS): 33.6 µM
TGI (SF-539 CNS): > 100 µM
GI50 (UACC-62 melanoma): 34.9 µM
TGI (UACC-62 melanoma): > 100 µM
GI50 (BT-549 breast): 21.1 µM
TGI (BT-549 breast): 47.2 µM
GI50 (KM12 colon): 34.5 µM
TGI (KM12 colon): > 100 µM
GI50 (PC-3 prostate): 29.9 µM
TGI (PC-3 prostate): > 100 µM
GI50 (MALME-3M melanoma): 28.8 µM
TGI (MALME-3M melanoma): 93.6 µM
GI50 (SNB-75 CNS): 34.4 µM
TGI (SNB-75 CNS): > 100 µM
GI50 (CAKI-1 renal): 38.8 µM
TGI (CAKI-1 renal): > 100 µM
GI50 (SW-620 colon): 63.5 µM
TGI (SW-620 colon): > 100 µM
GI50 (DU-145 prostate): 26.2 µM
TGI (DU-145 prostate): 90.6 µM
GI50 (SF-268 CNS): 48.6 µM
TGI (SF-268 CNS): > 100 µM
GI50 (OVCAR-8 ovarian): 28.5 µM
TGI (OVCAR-8 ovarian): > 100 µM
GI50 (M14 melanoma): 33.7 µM
TGI (M14 melanoma): > 100 µM
GI50 (NCI-H226 lung): 22.7 µM
TGI (NCI-H226 lung): 71.8 µM
GI50 (LOX IMVI melanoma): 20 µM
TGI (LOX IMVI melanoma): 43.1 µM
GI50 (MDA-MB-468 breast): 8.94 µM
TGI (MDA-MB-468 breast): 26 µM
GI50 (HL-60(TB) leukemia): 18.4 µM
TGI (HL-60(TB) leukemia): 33 µM
GI50 (IGROV1 ovarian): 41.6 µM
TGI (IGROV1 ovarian): > 100 µM
GI50 (SNB-19 CNS): 48.5 µM
TGI (SNB-19 CNS): > 100 µM
GI50 (HS 578T breast): 20 µM
TGI (HS 578T breast): 69.8 µM
GI50 (COLO 205 colon): 38.7 µM
TGI (COLO 205 colon): > 100 µM
GI50 (MDA-MB-435 melanoma): 48.4 µM
TGI (MDA-MB-435 melanoma): > 100 µM
GI50 (SK-MEL-28 melanoma): 53.3 µM
TGI (SK-MEL-28 melanoma): > 100 µM
GI50 (SR leukemia): 15.7 µM
TGI (SR leukemia): 30.5 µM
GI50 (UO-31 renal): 36.4 µM
TGI (UO-31 renal): > 100 µM
GI50 (NCI-H522 lung): 19.8 µM
TGI (NCI-H522 lung): 61.2 µM
GI50 (HCT-15 colon): 27.8 µM
TGI (HCT-15 colon): > 100 µM
GI50 (TK-10 renal): 38.4 µM
TGI (TK-10 renal): > 100 µM
GI50 (OVCAR-3 ovarian): 25.1 µM
TGI (OVCAR-3 ovarian): 68.5 µM
GI50 (A549 NSCLC): 26.9 µM
TGI (A549 NSCLC): 86.3 µM
GI50 (T-47D breast): 14.9 µM
TGI (T-47D breast): 67.4 µM
GI50 (RXF 393 renal): 21.3 µM
TGI (RXF 393 renal): 73.8 µM
GI50 (NCI-H322M lung): 39.4 µM
TGI (NCI-H322M lung): > 100 µM
GI50 (OVCAR-4 ovarian): 14.8 µM
TGI (OVCAR-4 ovarian): 53.2 µM
GI50 (HOP-62 NSCLC): 30 µM
TGI (HOP-62 NSCLC): > 100 µM
GI50 (NCI-H23 lung): 14.2 µM
TGI (NCI-H23 lung): 48.5 µM
GI50 (MOLT-4 leukemia): 13.9 µM
TGI (MOLT-4 leukemia): 27.1 µM
GI50 ([…]-0 renal): 31.6 µM
TGI (786-0 renal): > 100 µM
GI50 (UACC-257 melanoma): 19.2 µM
TGI (UACC-257 melanoma): 48.7 µM
GI50 (SK-MEL-5 melanoma): 15.1 µM
TGI (SK-MEL-5 melanoma): 29.4 µM
GI50 (HT29 colon): 43.9 µM
TGI (HT29 colon): > 100 µM
GI50 (A498 renal): 19.8 µM
TGI (A498 renal): 44 µM
GI50 (SN12C renal): 32.7 µM
TGI (SN12C renal): > 100 µM
GI50 (OVCAR-5 ovarian): 56.4 µM
TGI (OVCAR-5 ovarian): > 100 µM
GI50 (NCI/ADR-RES ovarian): 16.1 µM
TGI (NCI/ADR-RES ovarian): 52 µM
GI50 (MCF7 breast): 19.6 µM
TGI (MCF7 breast): 55.2 µM
GI50 (MDA-MB-231 breast): 25.4 µM
TGI (MDA-MB-231 breast): > 100 µM
GI50 (CCRF-CEM leukemia): 11.6 µM
TGI (CCRF-CEM leukemia): 25.8 µM
GI50 (SF-295 CNS): 30.2 µM
TGI (SF-295 CNS): > 100 µM
GI50 (HOP-92 NSCLC): 16.3 µM
TGI (HOP-92 NSCLC): 52 µM
GI50 (EKVX NSCLC): 27.3 µM
TGI (EKVX NSCLC): 97.3 µM
GI50 (HCC-2998 colon): 41.4 µM
TGI (HCC-2998 colon): > 100 µM
GI50 (ACHN renal): 33.2 µM
TGI (ACHN renal): > 100 µM
GI50 (RPMI-8226 leukemia): 11.8 µM
TGI (RPMI-8226 leukemia): 28.9 µM
GI50 (SK-OV-3 ovarian): 26.2 µM
TGI (SK-OV-3 ovarian): > 100 µM
GI50 (NCI-H460 NSCLC): 18.1 µM
TGI (NCI-H460 NSCLC): 33.9 µM
GI50 (K-562 leukemia): 18.3 µM
TGI (K-562 leukemia): > 100 µM
